≈ marks a conversion by molar mass, not a printed value.
How the values were obtained:
Format in all cases: cell-based
S. pneumoniae = test: Broth dilution MIC determination (CLSI) against S. pneumoniae strains; conditions: for MIC S. pneumoniae ATCC49619: ATCC49619, Strain No. MP-21
Description: (§1) Minimum inhibitory concentrations (MICs) for macrolides described herein have been determined for unique strains of S. aureus, S. pneumoniae, S. pyogenes, E. faecalis, E. coli, A. baumannii, K. pneumoniae, P. aeruginosa, and H. influenzae, including several multidrug-resistant strains, with a special focus on macrolide resistant mechanisms. Azithromycin and solithromycin were included as control compounds. CLSI standard procedures for broth dilution MIC determination were used. Data for exemplary compounds described herein is shown in Tables M1-M7 and in Tables N1-N4.

A. baumannii = test: Broth dilution MIC determination (CLSI) against A. baumannii strains; conditions: for MIC A. baumannii ATCC19606: ATCC19606, Strain No. MP-15
Description: as §1

S. aureus = test: Broth dilution MIC determination (CLSI) against S. aureus strains; conditions: for MIC S. aureus ATCC29213: ATCC29213, Strain No. MP-12; for MIC S. aureus ATCCBAA-977: ATCCBAA-977, Strain No. MP-17; for MIC S. aureus (MRSA) GISA USA600: GISA USA600, Strain No. MP-619 UNT-120; for MIC S. aureus (MRSA) ST-228 cErm: Strain No. MP-513; for MIC S. aureus (MRSA) USA100: USA100, Strain No. MP-618 UNT-096; for MIC S. aureus (MRSA) USA300: USA300, Strain No. MP-549; for MIC S. aureus (MRSA) ermA phenotype: Strain No. MP-620 UNT-146
Description: as §1

P. aeruginosa = test: Broth dilution MIC determination (CLSI) against P. aeruginosa strains; conditions: for MIC P. aeruginosa ATCC27853: ATCC27853, Strain No. MP-3; for MIC P. aeruginosa PAO1: PAO1, Strain No. MP-7; for MIC P. aeruginosa PAO1:mex: Strain No. MP-8
Description: as §1

E. coli = test: Broth dilution MIC determination (CLSI) against E. coli strains; conditions: for MIC E. coli ATCC25922: ATCC25922, Strain No. MP-4; for MIC E. coli ATCC25922:tolC: Strain No. MP-9; for MIC E. coli clinical: Strain No. MP541; for MIC E. coli clinical-cErm: Strain No. MP532
Description: as §1

S. pyogenes = test: Broth dilution MIC determination (CLSI) against S. pyogenes strains; conditions: for MIC S. pyogenes ATCC19615: ATCC19615, Strain No. MP-19; for MIC S. pyogenes mac resistant: Strain No. MP-625 UNT-014
Description: as §1

K. pneumoniae = test: Broth dilution MIC determination (CLSI) against K. pneumoniae strains; conditions: for MIC K. pneumoniae ATCC10031: ATCC10031, Strain No. MP-14
Description: Minimum inhibitory concentrations (MICs) for macrolides described herein have been determined for unique strains of S. aureus, S. pneumoniae, S. pyogenes, E. faecalis, E. coli, A. baumannii, K. pneumoniae, P. aeruginosa, and H. influenzae, including several multidrug-resistant strains, with a special focus on macrolide resistant mechanisms. Azithromycin and solithromycin were included as control compounds. CLSI standard procedures for broth dilution MIC determination were used.

E. faecalis = test: Broth dilution MIC determination (CLSI) against E. faecalis strains; conditions: for MIC E. faecalis ATCC29212: ATCC29212, Strain No. MP-24; for MIC E. faecalis van resistant: Strain No. UNT-039
Description: as §1

## CCC1OC(=O)C(C)C(=O)C(C)C(OC2OC(C)CC(N3CCOCC3)C2O)C(C)(OC)CC(C)CNC(C)C2N(CCCCn3cc(-c4cccc(N)c4)nn3)C(=O)OC12C (stereo not drawn) [FSM-120367]
S. pneumoniae
  MIC S. pneumoniae ATCC49619: 32 µg/mL (≈ 36.8 µM)
S. pneumoniae; Strain No. MP-626 UNT-038
  MIC S. pneumoniae mefA: 16 µg/mL (≈ 18.4 µM)
S. pneumoniae; Strain No. MP-627 UNT-039
  MIC S. pneumoniae mefA: 16 µg/mL (≈ 18.4 µM)
A. baumannii
  MIC A. baumannii ATCC19606: >64 µg/mL
A. baumannii; Strain No. MP576
  MIC A. baumannii clinical: >64 µg/mL
A. baumannii; Strain No. MP577
  MIC A. baumannii clinical: >64 µg/mL
S. aureus
  MIC S. aureus ATCC29213: >64 µg/mL
  MIC S. aureus ATCCBAA-977: >64 µg/mL
  MIC S. aureus (MRSA) GISA USA600: >64 µg/mL
  MIC S. aureus (MRSA) ST-228 cErm: >64 µg/mL
  MIC S. aureus (MRSA) USA100: >64 µg/mL
  MIC S. aureus (MRSA) USA300: >64 µg/mL
  MIC S. aureus (MRSA) ermA phenotype: >64 µg/mL
P. aeruginosa
  MIC P. aeruginosa ATCC27853: >64 µg/mL
  MIC P. aeruginosa PAO1: >64 µg/mL
  MIC P. aeruginosa PAO1:mex: >64 µg/mL
E. coli
  MIC E. coli ATCC25922: >64 µg/mL
  MIC E. coli ATCC25922:tolC: >64 µg/mL
  MIC E. coli clinical: >64 µg/mL
  MIC E. coli clinical-cErm: >64 µg/mL
S. pyogenes
  MIC S. pyogenes ATCC19615: 8 µg/mL (≈ 9.19 µM)
  MIC S. pyogenes mac resistant: 64 µg/mL (≈ 73.6 µM)
K. pneumoniae
  MIC K. pneumoniae ATCC10031: >64 µg/mL
K. pneumoniae; Strain No. MP546
  MIC K. pneumoniae clinical: >64 µg/mL
K. pneumoniae; Strain No. MP548
  MIC K. pneumoniae clinical: >64 µg/mL
E. faecalis
  MIC E. faecalis ATCC29212: 64 µg/mL (≈ 73.6 µM)
  MIC E. faecalis van resistant: >64 µg/mL

## CCC1OC(=O)C(C)C(=O)C(C)C(OC2OC(C)CC(NCC#N)C2O)C(C)(OC)CC(C)CNC(C)C2N(CCCCn3cc(-c4cccc(N)c4)nn3)C(=O)OC12C (stereo not drawn) [FSM-120369]
S. pneumoniae
  MIC S. pneumoniae ATCC49619: 0.5 µg/mL (≈ 0.596 µM)
S. pneumoniae; Strain No. MP-626 UNT-038
  MIC S. pneumoniae mefA: 0.25 µg/mL (≈ 0.298 µM)
S. pneumoniae; Strain No. MP-627 UNT-039
  MIC S. pneumoniae mefA: 0.25 µg/mL (≈ 0.298 µM)
A. baumannii
  MIC A. baumannii ATCC19606: >64 µg/mL
A. baumannii; Strain No. MP576
  MIC A. baumannii clinical: >64 µg/mL
A. baumannii; Strain No. MP577
  MIC A. baumannii clinical: >64 µg/mL
S. aureus
  MIC S. aureus ATCC29213: 32 µg/mL (≈ 38.1 µM)
  MIC S. aureus ATCCBAA-977: 32 µg/mL (≈ 38.1 µM)
  MIC S. aureus (MRSA) GISA USA600: >64 µg/mL
  MIC S. aureus (MRSA) ST-228 cErm: >64 µg/mL
  MIC S. aureus (MRSA) USA100: >64 µg/mL
  MIC S. aureus (MRSA) USA300: 32 µg/mL (≈ 38.1 µM)
  MIC S. aureus (MRSA) ermA phenotype: >64 µg/mL
P. aeruginosa
  MIC P. aeruginosa ATCC27853: >64 µg/mL
  MIC P. aeruginosa PAO1: >64 µg/mL
  MIC P. aeruginosa PAO1:mex: >64 µg/mL
E. coli
  MIC E. coli ATCC25922: >64 µg/mL
  MIC E. coli ATCC25922:tolC: >64 µg/mL
  MIC E. coli clinical: >64 µg/mL
  MIC E. coli clinical-cErm: >64 µg/mL
S. pyogenes
  MIC S. pyogenes ATCC19615: 0.5 µg/mL (≈ 0.596 µM)
  MIC S. pyogenes mac resistant: 2 µg/mL (≈ 2.38 µM)
K. pneumoniae
  MIC K. pneumoniae ATCC10031: 16 µg/mL (≈ 19.1 µM)
K. pneumoniae; Strain No. MP546
  MIC K. pneumoniae clinical: >64 µg/mL
K. pneumoniae; Strain No. MP548
  MIC K. pneumoniae clinical: >64 µg/mL
E. faecalis
  MIC E. faecalis ATCC29212: 4 µg/mL (≈ 4.77 µM)
  MIC E. faecalis van resistant: >64 µg/mL

## CCC1OC(=O)C(C)C(=O)C(C)C(OC2OC(C)CC(n3ccnc3)C2O)C(C)(OC)CC(C)CNC(C)C2N(CCCCn3cc(-c4cccc(N)c4)nn3)C(=O)OC12C (stereo not drawn) [FSM-120394]
S. pneumoniae
  MIC S. pneumoniae ATCC49619: 0.5 µg/mL (≈ 0.588 µM)
S. pneumoniae; Strain No. MP-626 UNT-038
  MIC S. pneumoniae mefA: 0.5 µg/mL (≈ 0.588 µM)
S. pneumoniae; Strain No. MP-627 UNT-039
  MIC S. pneumoniae mefA: 0.25 µg/mL (≈ 0.294 µM)
A. baumannii
  MIC A. baumannii ATCC19606: 64 µg/mL (≈ 75.2 µM)
A. baumannii; Strain No. MP576
  MIC A. baumannii clinical: >64 µg/mL
A. baumannii; Strain No. MP577
  MIC A. baumannii clinical: >64 µg/mL
S. aureus
  MIC S. aureus ATCC29213: >64 µg/mL
  MIC S. aureus ATCCBAA-977: >64 µg/mL
  MIC S. aureus (MRSA) GISA USA600: >64 µg/mL
  MIC S. aureus (MRSA) ST-228 cErm: >64 µg/mL
  MIC S. aureus (MRSA) USA100: >64 µg/mL
  MIC S. aureus (MRSA) USA300: >64 µg/mL
  MIC S. aureus (MRSA) ermA phenotype: >64 µg/mL
P. aeruginosa
  MIC P. aeruginosa ATCC27853: >64 µg/mL
  MIC P. aeruginosa PAO1: >64 µg/mL
  MIC P. aeruginosa PAO1:mex: >64 µg/mL
E. coli
  MIC E. coli ATCC25922: >64 µg/mL
  MIC E. coli ATCC25922:tolC: 16 µg/mL (≈ 18.8 µM)
  MIC E. coli clinical: >64 µg/mL
  MIC E. coli clinical-cErm: >64 µg/mL
S. pyogenes
  MIC S. pyogenes ATCC19615: 0.5 µg/mL (≈ 0.588 µM)
  MIC S. pyogenes mac resistant: 4 µg/mL (≈ 4.7 µM)
K. pneumoniae
  MIC K. pneumoniae ATCC10031: 16 µg/mL (≈ 18.8 µM)
K. pneumoniae; Strain No. MP546
  MIC K. pneumoniae clinical: >64 µg/mL
K. pneumoniae; Strain No. MP548
  MIC K. pneumoniae clinical: >64 µg/mL
E. faecalis
  MIC E. faecalis ATCC29212: 4 µg/mL (≈ 4.7 µM)
  MIC E. faecalis van resistant: >64 µg/mL

## CCC1OC(=O)C(C)C(=O)C(C)C(OC2OC(C)CC(N3CCOC3CO)C2O)C(C)(OC)CC(C)CNC(C)C2N(CCCCn3cc(-c4cccc(N)c4)nn3)C(=O)OC12C (stereo not drawn) [FSM-120380]
S. pneumoniae; S. pneumoniae ATCC49619, strain MP-21 (Table N2)
  MIC: 8 µg/mL (≈ 9.03 µM)
S. pneumoniae; S. pneumoniae mefA, strain MP-626 UNT-038 (Table N2)
  MIC: 4 µg/mL (≈ 4.51 µM)
S. pneumoniae; S. pneumoniae mefA, strain MP-627 UNT-039 (Table N2)
  MIC: 4 µg/mL (≈ 4.51 µM)
A. baumannii; A. baumannii ATCC19606, strain MP-15 (Table N2)
  MIC: >64 µg/mL
A. baumannii; A. baumannii clinical, strain MP576 (Table N2)
  MIC: >64 µg/mL
A. baumannii; A. baumannii clinical, strain MP577 (Table N2)
  MIC: >64 µg/mL
S. aureus; S. aureus (MRSA) GISA USA600, strain MP-619 UNT-120 (Table N2)
  MIC: >64 µg/mL
S. aureus; S. aureus (MRSA) ST-228 cErm, strain MP-513 (Table N2)
  MIC: >64 µg/mL
S. aureus; S. aureus (MRSA) USA100, strain MP-618 UNT-096 (Table N2)
  MIC: >64 µg/mL
S. aureus; S. aureus (MRSA) USA300, strain MP-549 (Table N2)
  MIC: >64 µg/mL
S. aureus; S. aureus (MRSA) ermA phenotype, strain MP-620 UNT-146 (Table N2)
  MIC: >64 µg/mL
S. aureus; S. aureus ATCC29213, strain MP-12 (Table N2)
  MIC: >64 µg/mL
S. aureus; S. aureus ATCCBAA-977, strain MP-17 (Table N2)
  MIC: >64 µg/mL
P. aeruginosa; P. aeruginosa ATCC27853, strain MP-3 (Table N2)
  MIC: >64 µg/mL
P. aeruginosa; P. aeruginosa PAO1, strain MP-7 (Table N2)
  MIC: >64 µg/mL
P. aeruginosa; P. aeruginosa PAO1:mex, strain MP-8 (Table N2)
  MIC: >64 µg/mL
E. coli; E. coli ATCC25922, strain MP-4 (Table N2)
  MIC: >64 µg/mL
E. coli; E. coli ATCC25922:tolC, strain MP-9 (Table N2)
  MIC: 32 µg/mL (≈ 36.1 µM)
E. coli; E. coli clinical, strain MP541 (Table N2)
  MIC: >64 µg/mL
E. coli; E. coli clinical-cErm, strain MP532 (Table N2)
  MIC: >64 µg/mL
S. pyogenes; S. pyogenes ATCC19615, strain MP-19 (Table N2)
  MIC: 8 µg/mL (≈ 9.03 µM)
S. pyogenes; S. pyogenes mac resistant, strain MP-625 UNT-014 (Table N2)
  MIC: 32 µg/mL (≈ 36.1 µM)
K. pneumoniae; K pneumomae ATCC10031, strain MP-14 (Table N2)
  MIC: >64 µg/mL
K. pneumoniae; K. pneumoniae clinical, strain MP546 (Table N2)
  MIC: >64 µg/mL
K. pneumoniae; K. pneumoniae clinical, strain MP548 (Table N2)
  MIC: >64 µg/mL
E. faecalis; E. faecalis ATCC29212, strain MP-24 (Table N2)
  MIC: 64 µg/mL (≈ 72.2 µM)
E. faecalis; E. faecalis van resistant, strain UNT-039 (Table N2)
  MIC: >64 µg/mL
